According to patent US20230219886A1, “NOVEL SELENO-NSAID ANALOGS AND USES THEREOF” (THE PENN STATE RESEARCH FOUNDATION, priority 2020, published 2023):
Read-outs that look alike come from different tables or passages of the source.

Tests used:
HCT-116 CRC cells = experiment: MTT cell viability assay, HCT-116; format: cell-based, human; conditions: Homo sapiens, read-out: IC50
Procedure: (§1) Cell Culture Conditions. The cell lines were obtained from the American Type Culture Collection (ATCC). PANC-1 and Caco-2 cell lines were maintained in DMEM medium (Gibco); HT-29, HCT-116 and RKO cells were maintained in McCoy's 5A medium (Gibco); and DU-145 and H1299 cells were maintained in RPMI 1640 medium (Gibco), supplemented with 10% fetal bovine serum (FBS; Gibco) and 1% antibiotics (10.00 units/mL penicillin and 10.00 mg/mL streptomycin; Gibco). Cells were preserved in tissue culture flasks at 37° C. and 5% CO2. Culture medium was replaced every three days.
(§2) Cell Viability Assay. The effect of each compound on cell viability was tested using the MTT assay (81). Briefly, 9000 cells/well were grown in 96-well plates for 12 h. Then these cells were incubated with either DMSO (control) or nine different concentration between 0.01-50 μM of the test compounds for 24, 48, and 72 h. Three hours before the termination point, 20 μL of MTT were added to measure cellular viability. The resultant formazan crystals were dissolved in 50 μL of DMSO, and absorbance was measured at 570 nm and 630 nm wavelengths. IC50, GI50, TGI and LC50 values were calculated using OriginPro 8.5.1.

[1] = test system: PANC-1 (pancreatic carcinoma); experiment: MTT cell viability assay, Panc-1; conditions: Homo sapiens, PANC-1, 48 h, read-out: cell viability
Procedure: as §1, §2
(§3) Evaluation of the antiproliferative activities of the novel molecules. […] These four cell lines were treated with each compound at three concentrations (5, 25 and 50 μM) for 48 h.

HT-29 (CRC) = experiment: MTT cell viability assay, HT-29; conditions: for viability at 5 µM / viability at 25 µM / viability at 50 µM: read-out: cell viability; for CC50: read-out: LC50
Procedure: as §1, §2, §3

CACO-2 CRC cells = experiment: cells; conditions: Homo sapiens
Procedure: as §1, §2

RKO CRC cells = experiment: cells; conditions: Homo sapiens
Procedure: as §1, §2

[2] = test system: DU-145 (prostate carcinoma); experiment: MTT cell viability assay, DU-145; conditions: Homo sapiens, DU-145, 48 h, read-out: cell viability
Procedure: as §1, §2, §3

H1299 (lung carcinoma) = experiment: MTT cell viability assay, H1299; conditions: Homo sapiens, NCI-H1299, 48 h, read-out: cell viability
Procedure: as §1, §2, §3

SK-MEL-28 (melanoma) = experiment: NCI-60 one-dose screen, SK-MEL-28; format: cell-based, human; conditions: SK-MEL-28, 10 μM, 48 h
Text: (§4) NCI-60 Analysis. 1a and 6a were submitted to National Cancer Institute's (NCI) Developmental Therapeutics Program (DTP) where the cytotoxicity profile was investigated across their 60 human cancer cell line panel according to the protocol available on multiple sources (71-73, 83). The COMPARE algorithm (73), was utilized to evaluate the activity profile of 6a in comparison to those of known cytotoxins established in marketed drugs and standard agent data sets in order to correlate plausible modes of action.
(§5) NCI-60 analysis. Compounds 1a, 5a and 6a were submitted to the National Cancer Institute's (NCI) Developmental Therapeutics Program (DTP). NCI-60 program consists in a panel of 60 human cancer cell lines from a variety of cancers, including refractory tumors such as lung, ovarian, CRC, breast, brain and renal cancers, and melanomas together with more treatable cancers such as leukemias (71). 1a [NSC: 803071], 5a [NSC: 820332] and 6a [NSC: 811013] were initially screened at one dose (10 μM) at 48 h. Then, NCI selected only compound 6a to perform dose-response characterization (72).

BT-549 (breast) = experiment: NCI-60 one-dose screen, BT-549; format: cell-based, human; conditions: BT-549, 10 μM, 48 h
Text: as §4, §5

TK-10 (renal) = experiment: NCI-60 one-dose screen, TK-10; format: cell-based, human; conditions: TK-10, 10 μM, 48 h
Text: as §4, §5

[3] = test system: human CRC cells (HT-29, HCT-116, RKO and CACO-2); experiment: MTT assay, panel of four CRC cells; format: cell-based; conditions: 4 CRC cells
Procedure: Cell Culture Conditions. […] Culture medium was replaced every three days.
Evaluation of the antiproliferative activity of methylseleno-NSAIDs, MSA and NSAIDs alone or in combination. […] CRC cells were treated for 24, 48 and 72 h at different concentrations to stablish the dose-response curves.

NCI-60 cell lines = experiment: NCI-60 one-dose screen, mean of all cell lines; format: cell-based, human; conditions: 10 μM, 48 h
Text: as §4, §5

DU-145 (prostate) = experiment: NCI-60 one-dose screen, DU-145; format: cell-based, human; conditions: DU-145, 10 μM, 48 h
Text: as §4, §5

With `CC(=O)Oc1ccccc1C(=O)O` [ASA, aspirin, reference compound] the IC50 (HCT-116 CRC cells; HCT-116, 24 h) was over 50 µM, the IC50 (HCT-116 CRC cells; HCT-116, 48 h) was over 50 µM and the IC50 (HCT-116 CRC cells; HCT-116, 72 h) was over 50 µM. The viability at 5 µM [1] was 86.7 ± 5.4%, the viability at 25 µM [1] was 63.8 ± 3.1% and the viability at 50 µM [1] was 68.6 ± 5.1%. It also gave a TGI (HT-29 (CRC); HT-29, 24 h) of over 50 µM, a TGI (HT-29 (CRC); HT-29, 48 h) of over 50 µM and a TGI (HT-29 (CRC); HT-29, 72 h) of over 50 µM. The GI50 (HT-29 (CRC); Homo sapiens, HT-29, 24 h) was over 50 µM, the IC50 (HT-29 (CRC); Homo sapiens, HT-29, 24 h) was over 50 µM and the GI50 (HT-29 (CRC); Homo sapiens, HT-29, 48 h) was over 50 µM. The IC50 (HT-29 (CRC); Homo sapiens, HT-29, 48 h) was over 50 µM, the viability at 5 µM (HT-29 (CRC); Homo sapiens, HT-29, 48 h) was 73.1 ± 13% and the viability at 25 µM (HT-29 (CRC); Homo sapiens, HT-29, 48 h) was 57.2 ± 11.3%. It also gave a viability at 50 µM (HT-29 (CRC); Homo sapiens, HT-29, 48 h) of 35.5 ± 7.7%, a GI50 (HT-29 (CRC); Homo sapiens, HT-29, 72 h) of over 50 µM and an IC50 (HT-29 (CRC); Homo sapiens, HT-29, 72 h) of over 50 µM. For the same molecule, the IC50 (CACO-2 CRC cells; Caco-2, 24 h) was over 50 µM, the IC50 (CACO-2 CRC cells; Caco-2, 48 h) was over 50 µM and the IC50 (CACO-2 CRC cells; Caco-2, 72 h) was over 50 µM. For the same molecule, the IC50 (RKO CRC cells; 24 h) was over 50 µM, the IC50 (RKO CRC cells; 48 h) was over 50 µM and the IC50 (RKO CRC cells; 72 h) was over 50 µM. It also gave a viability at 5 µM [2] of 89.8 ± 11%, a viability at 25 µM [2] of 85.3 ± 25.1% and a viability at 50 µM [2] of 90.9 ± 24.6%. The viability at 5 µM (H1299 (lung carcinoma)) was 44.1 ± 4.4%, the viability at 25 µM (H1299 (lung carcinoma)) was 51.1 ± 1.6% and the viability at 50 µM (H1299 (lung carcinoma)) was 58.3 ± 3.6%.

`COc1ccc2c(c1)c(CC(=O)[Se]C)c(C)n2C(=O)c1ccc(Cl)cc1` [Compound 5a, Se-methyl 2-(1-(4-chlorobenzoyl)-5-methoxy-2-methyl-1H-indol-3-yl)ethane-selenoate] gave a GP (SK-MEL-28 (melanoma)) of −7.85%, a GP (BT-549 (breast)) of −80.79% and an IC50 (HCT-116 CRC cells; HCT-116, 24 h) of over 50 µM. It also gave an IC50 (HCT-116 CRC cells; HCT-116, 48 h) of 5.6 ± 2.6 µM, an IC50 (HCT-116 CRC cells; HCT-116, 72 h) of 18.7 ± 4.9 µM and a GP (TK-10 (renal)) of −58.40%. For the same molecule, the “anti-tumoral activity versus MSA and NSAIDs as single agents or combined” value [3] was “higher anti-tumoral activity”, the viability at 5 µM [1] was 61.9 ± 4.4% and the viability at 25 µM [1] was 66.6 ± 1.9%. The viability at 50 µM [1] was 60.2 ± 5.5%, the “increase on cytotoxic potency compared with parent NSAID scaffolds” value (HT-29 (CRC)) was “three-fold” and the TGI (HT-29 (CRC); HT-29, 24 h) was over 50 µM. For the same molecule, the TGI (HT-29 (CRC); HT-29, 48 h) was 0.6 ± 0.5 µM, the TGI (HT-29 (CRC); HT-29, 72 h) was 5.1 ± 2.2 µM and the GI50 (HT-29 (CRC); Homo sapiens, HT-29, 24 h) was 4.9 ± 2.2 µM. The IC50 (HT-29 (CRC); Homo sapiens, HT-29, 24 h) was over 50 µM, the CC50 (HT-29 (CRC); Homo sapiens, HT-29, 24 h) was over 50 µM and the GI50 (HT-29 (CRC); Homo sapiens, HT-29, 48 h) was 3.2 ± 1.9 µM. For the same molecule, the IC50 (HT-29 (CRC); Homo sapiens, HT-29, 48 h) was 3.3 ± 0.9 µM, the CC50 (HT-29 (CRC); Homo sapiens, HT-29, 48 h) was over 50 µM and the viability at 5 µM (HT-29 (CRC); Homo sapiens, HT-29, 48 h) was 26.3 ± 2.9%. For the same molecule, the viability at 25 µM (HT-29 (CRC); Homo sapiens, HT-29, 48 h) was 17.9 ± 3.7%, the viability at 50 µM (HT-29 (CRC); Homo sapiens, HT-29, 48 h) was 18 ± 3.5% and the GI50 (HT-29 (CRC); Homo sapiens, HT-29, 72 h) was 2.9 ± 0.8 µM. For the same molecule, the IC50 (HT-29 (CRC); Homo sapiens, HT-29, 72 h) was 3.3 ± 0.3 µM, the CC50 (HT-29 (CRC); Homo sapiens, HT-29, 72 h) was over 50 µM and the cytotoxicity at 5 µM (HT-29 (CRC); Homo sapiens, HT-29, read-out: inhibition in cell viability) was 75 to 80%. It also gave an IC50 (CACO-2 CRC cells; Caco-2, 24 h) of over 50 µM, an IC50 (CACO-2 CRC cells; Caco-2, 48 h) of 4.2 ± 1.7 µM and an IC50 (CACO-2 CRC cells; Caco-2, 72 h) of 5.5 ± 1.1 µM. The IC50 (RKO CRC cells; 24 h) was over 50 µM, the IC50 (RKO CRC cells; 48 h) was 10.1 ± 6.9 µM and the IC50 (RKO CRC cells; 72 h) was 11.6 ± 5.9 µM. For the same molecule, the “GP mean value towards all cell lines” value (NCI-60 cell lines) was 4.01%, the viability at 5 µM [2] was 52.1 ± 1.5% and the viability at 25 µM [2] was 34.5 ± 3%. For the same molecule, the viability at 50 µM [2] was 27.4 ± 1.7%, the viability at 5 µM (H1299 (lung carcinoma)) was 49.5 ± 9.4% and the viability at 25 µM (H1299 (lung carcinoma)) was 37 ± 5.6%. It also gave a viability at 50 µM (H1299 (lung carcinoma)) of 32.4 ± 5.8% and a GP (DU-145 (prostate)) of −7.90%.
